Measurements taken from patent publication US20230000876A1, “TREATING CANCERS WITH A CYCLIN-DEPENDENT KINASE INHIBITOR” (Nuvation Bio Inc., priority 2021, published 2023).

How the values were obtained:
xBT474 breast tumor = xBT474 breast tumor model (ER-negative/HER2-positive); conditions: Group 5: Compound (I) 30 mg/kg PO QD*28 days
PC-9-luc = assay: CellTiter-Glo anti-proliferation assay, PC-9-luc; type: cell-based
Protocol: (§1) The anti-proliferation effect of 2 compounds (the compound of formula (I) and temozolomide) in 7 CNS metastasis cell lines (MOLT-4-luc, Nalm-6-luc, NCI-H460-luc, ACHN-luc2, PC-9-luc, H1975-luc, and KM12-luc) was evaluated.
The plating of cells and compound treatments are shown below in the plate map (Table 12). One plate was needed for the test of 2 compounds (the compound of formula (I) and temozolomide) in one cell line. The compound of formula (I) was tested from 10 μM, 3-fold serial dilution. Temozolomide was tested from 100 μM, 3-fold serial dilution.
All the cell lines were maintained in culture conditions at 37° C. in an atmosphere with 5% CO2 in air. The tumor cells were routinely subcultured. The cells growing in an exponential growth phase were harvested and counted for plating.
Cells were counted by haemocytometer with Trypan blue staining. Next, 135 μL of cell suspension were plated into the assay plates according to the plate map and 135 μL of assay medium into the blank wells. The plates were incubated at 37° C., 5% CO2, 95% air and 100% relative humidity overnight.
4.4.4 Compound Plate (10×) Preparation and Compound Treatment • 10× concentrate compound plate preparation: Add 198 μL of assay medium into each well of the V-bottom plate; then transfer 2 μL of the stock compound solution of each concentration from the stock plate. Add 2 μL of DMSO into the Blank and Control wells. Pipette up and down to mix well. This V-plate is designated as the 10× concentrate compound plate. • For day 0 plate, add 15 μL of the DMSO-medium into the Control wells. The final DMSO concentration was 0.1%. Then directly proceed to cell viability assay. • For assay plate, add 15 μL of the compound-medium of each well from the 10× concentrate compound plate into the cells in 96-well assay plate according to the plate map. Add 15 μL of the DMSO-medium into the Blank and Control wells. The final DMSO concentration was 0.1%. • Return the assay plate into incubator and incubate for 6 days.
(§2) The procedures were performed according to the Promega CellTiter-Glo Luminescent Cell Viability Assay Kit manual (Promega-G7573). • The CellTiter-Glo buffer was thawed and equilibrated to room temperature prior to use. • CellTiter-Glo Substrate was equilibrated to room temperature prior to use. • The entire liquid volume of CellTiter-Glo Buffer was transferred into the amber bottle containing CellTiter-Glo Substrate to reconstitute the lyophilized enzyme/substrate mixture. This forms the CellTiter-Glo Reagent. • The contents were mixed by gently vortexing to obtain a homogeneous solution. • The plate was equilibrated and its contents to room temperature for approximately 30 minutes. 75 μL (equal to the half volume of culture medium present in each well) CellTiter-Glo • Reagent was added in each well. Plates were covered with aluminum foil to protect from light. • The contents were mixed for 2 minutes on an orbital shaker to induce cell lysis. • The plate was incubated at room temperature for 20 minutes to stabilize luminescent signal. • Record luminescence on the 2104 EnVision plate reader.
Inhibition rate (IR) of the tested compounds was determined by the following formula: IR (%)=(1−(RLU compound−RLU day0)/(RLU control−RLU day0))*100%. The inhibitions of different dose of compound were calculated in Excel file, and then were used to plot inhibition curves and evaluate related parameters, such as Min (%), Max (%) and GI50. The data were interpreted by GraphPad Prism.

[1] = test system: 7 CNS metastasis cell lines (MOLT-4-luc, Nalm-6-luc, NCI-H460-luc, ACHN-luc2, PC-9-luc, H1975-luc, KM12-luc); assay: Anti-proliferation assay, 7 CNS metastasis cell lines taken together; type: cell-based
Protocol: as §1
The plating of cells and compound treatments are shown below in the plate map (Table 12). One plate was needed for the test of 2 compounds (the compound of formula (I) and temozolomide) in one cell line. The compound of formula (I) was tested from 10 μM, 3-fold serial dilution. Temozolomide was tested from 100 μM, 3-fold serial dilution. […]
as §2, with “This forms the CellTiter-Glo Reagent. • The contents were mixed by gently vortexing to obtain a homogeneous solution. • The plate was equilibrated and its contents to room temperature for approximately 30 minutes. 75 μL (equal to the half volume of culture medium present in each well) CellTiter-Glo • Reagent was added in each well.” left out, “reader. […]” for “reader.”

[2] = inhibition rate, 6 days, Compound (I) from 10 μM, temozolomide from 100 μM, 3-fold, 9 points

## CC(C)N1CCOc2c(F)cc(-c3nc(Nc4ccc(C5CCN(C)CC5)cn4)ncc3F)cc21 [Compound (I), 5-fluoro-4-(8-fluoro-4-isopropyl-3,4-dihydro-2H-benzo[b][1,4]oxazin-6-yl)-N-(5-(1-methylpiperidin-4-yl)pyridin-2-yl)pyrimidin-2-amine]
xBT474 breast tumor; Day 0
  Tumor volume (mean ± SEM): 146 ± 8 mm^3
xBT474 breast tumor; Day 4
  Tumor volume (mean ± SEM): 240 ± 20 mm^3
xBT474 breast tumor; Day 7
  Tumor volume (mean ± SEM): 250 ± 22 mm^3
xBT474 breast tumor; Day 11
  Tumor volume (mean ± SEM): 347 ± 45 mm^3
xBT474 breast tumor; Day 14
  Tumor volume (mean ± SEM): 408 ± 42 mm^3
xBT474 breast tumor; Day 18
  Tumor volume (mean ± SEM): 490 ± 59 mm^3
xBT474 breast tumor; Day 21
  Tumor volume (mean ± SEM): 549 ± 73 mm^3
xBT474 breast tumor; Day 25
  Tumor volume (mean ± SEM): 576 ± 79 mm^3
xBT474 breast tumor; Day 28
  Tumor volume (mean ± SEM): 617 ± 84 mm^3
xBT474 breast tumor; Day 32
  Tumor volume (mean ± SEM): 658 ± 99 mm^3
xBT474 breast tumor; Day 35
  Tumor volume (mean ± SEM): 721 ± 119 mm^3
xBT474 breast tumor; Day 39
  Tumor volume (mean ± SEM): 685 ± 107 mm^3
xBT474 breast tumor; Day 42
  Tumor volume (mean ± SEM): 694 ± 120 mm^3
xBT474 breast tumor; Day 46
  Tumor volume (mean ± SEM): 707 ± 116 mm^3
PC-9-luc; 144 h, 6 days incubation, read-out: Absolute GI50
  GI50: 2790 nM
PC-9-luc; [2]
  Max (%): 116.3%
  Min (%): −13.7%
[1]; current testing concentrations
  Inhibitory effect in cell viability assay: significant inhibitory effect
[1]; read-out: Absolute GI50 values, range over 7 cell lines
  GI50: 47 to 2790 nM
